Legend:
Ustilago maydis (USTIMA) = test: microbe, parasite or virus in culture; assay type: cell-based
[1] = system: Rhizoctonia solani (RHIZSO); test: microbe, parasite or virus in culture; assay type: cell-based
Further: test concentration or dose not given here.

Row | SMILES | USTIMA in vitro Growth Inhibition (Ustilago maydis (USTIMA)) | RHIZSO in vitro Growth Inhibition [1]
1 | O=C(NCc1ccccc1Cl)c1ncccc1O [Compound 218] | + (key: +: at least 80% growth inhibition; −: less than 80% growth inhibition) | + (key: +: at least 80% growth inhibition; −: less than 80% growth inhibition)
2 | COc1ccnc(C(=O)N[C@@H]2CC3CC2[C@@H](C(=O)OCCc2ccccc2)[C@H]3C(=O)OCC(C)C)c1O (stereo partly drawn) [Compound 301] | − (key: +: at least 80% growth inhibition; −: less than 80% growth inhibition) | + (key: +: at least 80% growth inhibition; −: less than 80% growth inhibition)
3 | COc1ccnc(C(=O)NC2CC3CCC2C3)c1O (stereo not drawn) [Compound 287] | − (key: +: at least 80% growth inhibition; −: less than 80% growth inhibition) | + (key: +: at least 80% growth inhibition; −: less than 80% growth inhibition)
4 | O=C(NCc1cccc2ccccc12)c1ncccc1O [Compound 228] | − (key: +: at least 80% growth inhibition; −: less than 80% growth inhibition) | − (key: +: at least 80% growth inhibition; −: less than 80% growth inhibition)
5 | COc1ccnc(C(=O)NC2CC(C)(C)C(OC(=O)c3ccccc3)C(C)(C)C2)c1O (stereo not drawn) [Compound 268] | − (key: +: at least 80% growth inhibition; −: less than 80% growth inhibition) | − (key: +: at least 80% growth inhibition; −: less than 80% growth inhibition)
6 | COc1cccc(CNC(=O)c2ncccc2O)c1OC [Compound 227] | − (key: +: at least 80% growth inhibition; −: less than 80% growth inhibition) | − (key: +: at least 80% growth inhibition; −: less than 80% growth inhibition)
7 | COc1ccnc(C(=O)NCC(C)(C)Sc2ncc(C(F)(F)F)cc2Cl)c1O [Compound 244] | − (key: +: at least 80% growth inhibition; −: less than 80% growth inhibition) | − (key: +: at least 80% growth inhibition; −: less than 80% growth inhibition)
8 | COc1ccnc(C(=O)N[C@H]2CC(C)(C)[C@H](O)C(C)(C)C2)c1O [Compound 264, trans-4-Hydroxy-3,3,5,5-Tetramethylpicolinamide] | − (key: +: at least 80% growth inhibition; −: less than 80% growth inhibition) | − (key: +: at least 80% growth inhibition; −: less than 80% growth inhibition)
9 | C[C@H](NC(=O)c1ncccc1O)c1cccc2ccccc12 [Compound 232] | − (key: +: at least 80% growth inhibition; −: less than 80% growth inhibition) | − (key: +: at least 80% growth inhibition; −: less than 80% growth inhibition)
10 | COc1ccnc(C(=O)N[C@H]2O[C@@H](C)[C@@H](OC(C)=O)[C@@H](OC(C)=O)[C@@H]2OC(C)=O)c1O [Compound 333] | − (key: +: at least 80% growth inhibition; −: less than 80% growth inhibition) | − (key: +: at least 80% growth inhibition; −: less than 80% growth inhibition)
11 | O=C(OC1CCC(NC(=O)c2ncccc2O)CC1)c1ccccc1 (stereo not drawn) [Compound 211] | − (key: +: at least 80% growth inhibition; −: less than 80% growth inhibition) | − (key: +: at least 80% growth inhibition; −: less than 80% growth inhibition)
12 | COc1ccnc(C(=O)N[C@H]2CC3OC2[C@H](C)[C@@H](OCc2ccccc2)[C@H]3C)c1O (stereo partly drawn) [Compound 321] | − (key: +: at least 80% growth inhibition; −: less than 80% growth inhibition) | − (key: +: at least 80% growth inhibition; −: less than 80% growth inhibition)
13 | COc1ccnc(C(=O)N[C@@H]2CC3CC2C[C@@H]3COCc2cccc(C(F)(F)F)c2)c1O (stereo partly drawn) [Compound 297] | − (key: +: at least 80% growth inhibition; −: less than 80% growth inhibition) | + (key: +: at least 80% growth inhibition; −: less than 80% growth inhibition)
14 | CCCCCCCCCNC(=O)c1ncccc1O [Compound 201] | − (key: +: at least 80% growth inhibition; −: less than 80% growth inhibition) | − (key: +: at least 80% growth inhibition; −: less than 80% growth inhibition)
15 | CC(NC(=O)c1ncccc1O)c1ccccc1 (stereo not drawn) [Compound 229] | − (key: +: at least 80% growth inhibition; −: less than 80% growth inhibition) | − (key: +: at least 80% growth inhibition; −: less than 80% growth inhibition)
16 | COc1ccnc(C(=O)NC2CC(C)(C)CC(C)(C)C2)c1O [Compound 250] | − (key: +: at least 80% growth inhibition; −: less than 80% growth inhibition) | − (key: +: at least 80% growth inhibition; −: less than 80% growth inhibition)

Row | SMILES | USTIMA in vitro Growth Inhibition (Ustilago maydis (USTIMA)) | RHIZSO in vitro Growth Inhibition [1]
17 | COc1cc(NC(=O)c2ncccc2O)cc(OC)c1 [Compound 216] | − (key: +: at least 80% growth inhibition; −: less than 80% growth inhibition) | − (key: +: at least 80% growth inhibition; −: less than 80% growth inhibition)
18 | COc1ccnc(C(=O)NC2CCC[C@H]3CC(CCC=C(C)C)=CC[C@@H]23)c1O (stereo partly drawn) [Compound 286] | − (key: +: at least 80% growth inhibition; −: less than 80% growth inhibition) | + (key: +: at least 80% growth inhibition; −: less than 80% growth inhibition)
19 | COc1ccc(CNC(=O)c2ncccc2O)cc1 [Compound 226] | − (key: +: at least 80% growth inhibition; −: less than 80% growth inhibition) | − (key: +: at least 80% growth inhibition; −: less than 80% growth inhibition)
20 | COc1ccnc(C(=O)N[C@@H]2CCCC[C@H]2SC)c1O [Compound 273] | − (key: +: at least 80% growth inhibition; −: less than 80% growth inhibition) | − (key: +: at least 80% growth inhibition; −: less than 80% growth inhibition)
21 | COc1ccnc(C(=O)NC2CC(C)(C)C=CC=C2C)c1O (stereo not drawn) [Compound 278] | − (key: +: at least 80% growth inhibition; −: less than 80% growth inhibition) | − (key: +: at least 80% growth inhibition; −: less than 80% growth inhibition)
22 | COc1ccnc(C(=O)NC2COC3(CC(C)(C)CC(C)(C)C3)OC2)c1O [Compound 315] | − (key: +: at least 80% growth inhibition; −: less than 80% growth inhibition) | − (key: +: at least 80% growth inhibition; −: less than 80% growth inhibition)
23 | COc1ccnc(C(=O)NC2CCc3ccccc3C2=O)c1O (stereo not drawn) [Compound 285] | − (key: +: at least 80% growth inhibition; −: less than 80% growth inhibition) | + (key: +: at least 80% growth inhibition; −: less than 80% growth inhibition)
24 | COc1ccnc(C(=O)NC2CCCC2=O)c1O (stereo not drawn) [Compound 249] | − (key: +: at least 80% growth inhibition; −: less than 80% growth inhibition) | − (key: +: at least 80% growth inhibition; −: less than 80% growth inhibition)
25 | Cc1cc(C)cc(NC(=O)c2ncccc2O)c1 [Compound 215] | − (key: +: at least 80% growth inhibition; −: less than 80% growth inhibition) | − (key: +: at least 80% growth inhibition; −: less than 80% growth inhibition)
26 | COc1ccnc(C(=O)NC2CC3OC2C(C)C(OC(=O)C(C)C)C3C)c1O (stereo not drawn) [Compound 320] | − (key: +: at least 80% growth inhibition; −: less than 80% growth inhibition) | − (key: +: at least 80% growth inhibition; −: less than 80% growth inhibition)
27 | COc1ccnc(C(=O)NC/C=C(\C)CCC=C(C)C)c1O [Compound 242] | + (key: +: at least 80% growth inhibition; −: less than 80% growth inhibition) | + (key: +: at least 80% growth inhibition; −: less than 80% growth inhibition)
28 | CC(NC(=O)c1ncccc1O)c1ccc(Cl)cc1 (stereo not drawn) [Compound 230] | − (key: +: at least 80% growth inhibition; −: less than 80% growth inhibition) | − (key: +: at least 80% growth inhibition; −: less than 80% growth inhibition)
29 | COc1ccnc(C(=O)N[C@H]2CC[C@@H](Oc3ccc(C(F)(F)F)cc3)CC2)c1O [Compound 271] | + (key: +: at least 80% growth inhibition; −: less than 80% growth inhibition) | + (key: +: at least 80% growth inhibition; −: less than 80% growth inhibition)
30 | O=C(NCc1cccc(Cl)c1)c1ncccc1O [Compound 219] | + (key: +: at least 80% growth inhibition; −: less than 80% growth inhibition) | + (key: +: at least 80% growth inhibition; −: less than 80% growth inhibition)
31 | O=C(NC1CCC(O)CC1)c1ncccc1O (stereo not drawn) [Compound 208] | − (key: +: at least 80% growth inhibition; −: less than 80% growth inhibition) | − (key: +: at least 80% growth inhibition; −: less than 80% growth inhibition)
32 | COc1ccnc(C(=O)NC2CCN(C(=O)c3ccccc3)CC2)c1O [Compound 308] | − (key: +: at least 80% growth inhibition; −: less than 80% growth inhibition) | 

— patent US7034035B2, “Fungicidal mono-, bi-, and tri-cycloheteroalkyl amides and their compositions, methods of use and preparation” (priority 1999, dated 2006)
